Laboratory results published in US9533986B2, “Bicyclic dihydropyridone kinase inhibitors” (PORTOLA PHARMACEUTICALS, INC., priority 2012, dated 2017).

Molecular target: T1, full length active recombinant SYK enzyme (Homo sapiens, UniProt P43405)
T1 construct: full length active recombinant SYK enzyme (Millipore, Calif.); purchased Millipore
Assay: Inhibition of Syk tyrosine phosphorylation activity (LANCE TR-FRET kinase assay)
Type: biochemical
Details: 1 nM active SYK enzyme, 550 nM SYK-substrate, 100 μM ATP, 1 hour at room temperature
Protocol: The in vitro and in vivo human JAK/Syk activities of the inventive compounds can be determined by various procedures known in the art, such as a test for their ability to inhibit the activity of human plasma JAK/Syk. […] The IC50 value is the concentration of the compound required to provide 50% inhibition of human JAK/Syk proteolytic activity.
An in vitro assay for detecting and measuring inhibition activity against Syk is as follows.
SYK tyrosine phosphorylation activity is measured using the LANCE™ Technology developed by Perkin Elmer Life and Analytical Sciences (Boston, Mass.). LANCE™ refers to homogeneous time resolved fluorometry applications using techniques such as time-resolved fluorescence resonance energy transfer assay (TR-FRET) (see generally for procedures in Perkin Elmer Application Note—How to Optimize a Tyrosine Kinase Assay Using Time Resolved Fluorescence-Based LANCE Detection, wwww.perkinelmer.com/lifesciences). The assay principle involves detection of a phosphorylated substrate using energy transfer from a phosphospecific europium-labeled antibody to streptavidin-allophycocyanin as an acceptor.
Molecules are reconstituted in 30% DMSO and serially diluted 1:3 with the final dilution containing DMSO in the absence of the candidate molecule. The final DMSO concentration in the assay is 3%. Kinase assays are performed as a two part reaction. The first reaction is a kinase reaction which comprises a candidate molecule, full length active recombinant SYK enzyme (Millipore, Calif.), and biotin-DEEDYESP-OH, a biotin-labeled SYK-specific substrate. The second reaction involves termination of the kinase reaction and the simultaneous addition of the detection reagents—europium-labeled anti-phosphotyrosine reagent (Eu-W1024-PY100, Perkin Elmer, Boston, Mass.) and Streptavidin-Allophycocyanin detection reagent (SA-APC, Prozyme, CA). The kinase reaction is performed in a black U-bottom 96-well microtitre plate. The final reaction volume is 50 μL and contains a final concentration of 1 nM active SYK enzyme, 550 nM SYK-substrate, and 100 μM ATP diluted in a buffer containing 50 mM Tris pH 7.5, 5 mM MgCl2, and 1 mM DTT. The reaction is allowed to proceed for 1 hour at room temperature. The quench buffer contains 100 mM Tris pH 7.5, 300 mM NaCl2, 20 mM EDTA, 0.02% Brij35, and 0.5% BSA. […] Detection of the phosphorylated substrate in the absence and presence of inhibitors is measured in the TR-FRET instrument, Analyst HT (Molecular Probes, Sunnyvale, Calif.) and the condition for measurements are set using CriterionHost Release 2.0 (Molecular Probes, Sunnyvale, Calif.). […] Inhibition of SYK-tyrosine kinase activity is calculated as the maximum response observed in the presence of inhibitor, compared to that in the absence of inhibitor. […]

| IC50 | Structure (SMILES) |
| --- | --- |
| ≤ 100 nM | Cc1cccc(Nc2nc(N[C@@H]3CCCC[C@@H]3N)nc3c2C(=O)NCC3)c1 [Example 1, 2-(((1R,2S)-2-aminocyclohexyl)amino)-4-(m-tolylamino)-7,8-dihydropyrido[4,3-d]pyrimidin-5(6H)-one] |
| ≤ 250 nM | N[C@H]1CCCC[C@H]1Nc1nc2c(c(Nc3cccc(-c4ncccn4)c3)n1)C(=O)NCC2 [Example 4, 2-(((1R,2S)-2-aminocyclohexyl)amino)-4-((3-(pyrimidin-2-yl)phenyl)amino)-7,8-dihydropyrido[4,3-d]pyrimidin-5(6H)-one] |
| > 250 nM | COc1ccc(Nc2nc(N[C@@H]3CCCC[C@@H]3N)nc3c2C(=O)NCC3)cc1C(F)(F)F [Example 7, 2-(((1R,2S)-2-aminocyclohexyl)amino)-4-((4-methoxy-3-(trifluoromethyl)phenyl)amino)-7,8-dihydropyrido[4,3-d]pyrimidin-5(6H)-one] |
| ≤ 100 nM | N[C@H]1CCCC[C@H]1Nc1nc2c(c(Nc3cccc(-n4nccn4)c3)n1)C(=O)NCC2 [Example 6, 4-((3-(2H-1,2,3-triazol-2-yl)phenyl)amino)-2-(((1R,2S)-2-aminocyclohexyl)amino)-7,8-dihydropyrido[4,3-d]pyrimidin-5(6H)-one] |
